Earlier results as cited in patent US11306114B2, “Process for separation, isolation and characterization of steviol glycosides” (Heartland Consumer Products, LLC, priority 2014, dated 2022).
Like-named read-outs stand apart in the source and are kept apart here.

Experiments:
[1] = for Sweetness Intensity: relative to an equal weight of sucrose, data from Tanaka, Pure & Appl. Chem.
[2] = subjective relative ranking; data from Tanaka, Pure & Appl. Chem.
[3] = carbonated beverages (Chang et al. 1983) / general statement
[4] = literature statements

heat and pH stability [3]	Molecule	Sweetness Intensity [1]	Sweetness Quality [2]	taste attributes [4]	times sweeter than sucrose ([1]; general statements in text, varies with temperature and viscosity of the carrier medium)	taste attributes ([4]; listed as Rebaudioside A)	taste attributes ([4]; listed as rebaudioside A)
–	C=C1C[C@@]23CC[C@H]4[C@@](C)(CCC[C@@]4(C)C(=O)O[C@@H]4O[C@H](CO)[C@@H](O)[C@H](O)[C@H]4O)[C@@H]2CC[C@]1(O[C@@H]1O[C@H](CO)[C@@H](O)[C@H](O)[C@H]1O)C3 [rubusoside]	115	−2	–	–	–	–
–	C=C1C[C@@]23CC[C@H]4[C@@](C)(CCC[C@@]4(C)C(=O)O)[C@@H]2CC[C@]1(O[C@@H]1O[C@H](CO)[C@@H](O)[C@H](O)[C@H]1O[C@@H]1O[C@H](CO)[C@@H](O)[C@H](O)[C@H]1O)C3 [steviolbioside]	40	−3	–	–	–	–
–	C=C1C[C@@]23CC[C@H]4[C@@](C)(CCC[C@@]4(C)C(=O)O[C@@H]4O[C@H](CO)[C@@H](O)[C@H](O)[C@H]4O[C@@H]4O[C@H](CO)[C@@H](O)[C@H](O)[C@H]4O)[C@@H]2CC[C@]1(O[C@@H]1O[C@H](CO)[C@@H](O)[C@H](O)[C@H]1O[C@@H]1O[C@H](CO)[C@@H](O)[C@H](O)[C@H]1O)C3 [rebaudioside-E, rebaudioside E]	200	1	–	–	–	–
heat and pH stability	C=C1C[C@@]23CC[C@H]4[C@@](C)(CCC[C@@]4(C)C(=O)O[C@@H]4O[C@H](CO)[C@@H](O)[C@H](O)[C@H]4O)[C@@H]2CC[C@]1(O[C@@H]1O[C@H](CO)[C@@H](O)[C@H](O)[C@H]1O[C@@H]1O[C@H](CO)[C@@H](O)[C@H](O)[C@H]1O)C3 [stevioside, 13-[(2-O-β-D-glucopyranosyl-α-D-glucopyranosyl)oxy]-kaur-16-en-18-oic acid β-D-glucopyranosyl ester]	145	0	metallic and bitter notes	–	–	–
–	C=C1C[C@@]23CC[C@H]4[C@@](C)(CCC[C@@]4(C)C(=O)O[C@@H]4O[C@H](CO)[C@@H](O)[C@H](O)[C@H]4O)[C@@H]2CC[C@]1(O[C@@H]1O[C@H](CO)[C@@H](O)[C@H](O)[C@H]1O[C@@H]1O[C@@H](C)[C@H](O)[C@@H](O)[C@H]1O)C3 [dulcoside-A, dulcoside A]	70	−2	–	about 30 times	–	–
–	C=C1C[C@@]23CC[C@H]4[C@@](C)(CCC[C@@]4(C)C(=O)O[C@@H]4O[C@H](CO)[C@@H](O)[C@H](O)[C@H]4O[C@@H]4O[C@H](CO)[C@@H](O)[C@H](O)[C@H]4O)[C@@H]2CC[C@]1(O[C@@H]1O[C@H](CO)[C@@H](O)[C@H](O[C@@H]2O[C@H](CO)[C@@H](O)[C@H](O)[C@H]2O)[C@H]1O[C@@H]1O[C@H](CO)[C@@H](O)[C@H](O)[C@H]1O)C3 [rebaudioside-D, rebaudioside D]	300	3	–	–	–	–
heat and pH stability	C=C1C[C@@]23CC[C@H]4[C@@](C)(CCC[C@@]4(C)C(=O)O[C@@H]4O[C@H](CO)[C@@H](O)[C@H](O)[C@H]4O)[C@@H]2CC[C@]1(O[C@@H]1O[C@H](CO)[C@@H](O)[C@H](O[C@@H]2O[C@H](CO)[C@@H](O)[C@H](O)[C@H]2O)[C@H]1O[C@@H]1O[C@H](CO)[C@@H](O)[C@H](O)[C@H]1O)C3 [rebaudioside-A, rebaudioside A]	250	2	–	–	the least astringent, the least bitter, and the least persistent aftertaste	metallic and bitter notes
–	rebaudioside B	300	3	–	–	–	–
–	C=C1C[C@@]23CC[C@H]4[C@@](C)(CCC[C@@]4(C)C(=O)O)[C@@H]2CC[C@]1(O[C@@H]1O[C@H](CO)[C@@H](O)[C@H](O)[C@H]1O)C3 [steviolmonoside]	40	−3	–	–	–	–
–	rebaudioside C [rebaudioside-C]	200	−1	–	–	–	–
